# Measured values from patent publication US8809010B2, “Method for prophylactic treatment of alzheimer's disease using inhibitors of glutaminyl cyclase and glutamate cyclases” (Probiodrug AG, priority 2003, dated 2014).
# Assays:
# [1] = tested on: human MCP-1 concentration, HEK293 cells; assay: Expression of human MCP-1 in HEK293 cells, MCP-1 ELISA of supernatant; assay type: cell-based; conditions: 10 μM inhibitor
# Procedure: For expression of N-terminal variants of human MCP-1, HEK293 cells were cultured in collagen I coated 6-well dishes and grown until 80% confluency, transfected using Lipofectamin2000 (Invitrogen) according to manufacturer's manual and incubated in the transfection solution for 5 hours. Afterwards, cells were allowed to recover in normal growth media over night. The next day, cells were incubated another 24 h in growth media. When application of QC specific inhibitor […] was intended, cells were incubated for 24 h in absence or presence of 10 μM […]. […] Furthermore, an aliquot of cell culture supernatant was stored at −80° C. for quantification of human MCP-1 concentration using human MCP-1-ELISA (Pierce).
# [2] = tested on: cuffed femoral artery: vascular remodeling, monocyte adhesion, MCP-1 expression; assay: Cuff-induced accelerated atherosclerosis in ApoE3*Leiden mice; assay type: in vivo; set-up: reduction of percentage of lumen stenosis / reduction of the area of neointima formation / reduction of total adhering cells / reduction of adhering monocytes / reduction of MCP-1 expression, absolute area, media / reduction of MCP-1 expression, absolute area, intima: concentration or dose not given beside the values
# Procedure: After 3 weeks the mice underwent surgical non-constricting cuff placement (day 0) and were divided into 2 groups, matched for plasma cholesterol levels.
# At the time of surgery, mice were anaesthetized with an intraperitoneal injection of 5 mg/kg Dormicum, 0.5 mg/kg Domitor and 0.05 mg/kg Fentanyl. This cocktail gives complete narcosis for at least one hour and can be quickly antagonized with Antisedan 2.5 mg/kg and Anexate 0.5 mg/kg.
# A longitudinal 1 cm incision is made in the internal side of the leg and the femoral artery is dissected for 3 mm length from the femoral nerve and femoral vein. The femoral artery is looped with a ligature and a non-constrictive fine bore polyethylene tubing (0.4 mm inner diameter, 0.8 mm outer diameter, length 2 mm) is longitudinally opened and sleeved loosely around the femoral artery. The cuff is closed up with two ligature knots. The skin is closed with a continued suture.
# For histological analysis, animals were sacrificed either 2 days or 14 days after cuff placement. […] After perfusion, a longitudinal 2 cm incision was made in the internal side of the leg and the cuffed femoral artery was harvested as a whole and fixed overnight in 4% formaldehyde and processed to paraffin.
# Adhesion of leukocytes in general and monocytes/macrophages in particular to the activated endothelium of the cuffed vessel wall was analyzed by microscopic analysis of cross sections harvested 2 days after cuff placement. The number of adhering and/or infiltrating leukocytes in general, identified as adhering cells at the luminal side of the vessel segment, and monocytes/macrophages in particular was counted and illustrated as cells per cross-section or as defined areas per cross section. Monocytes were identified by specific immunohistochemical staining by AIA31240 antibody, recognizing monocytes and macrophages.
# Vessel wall remodeling accelerated atherosclerosis and neoinitima formation were analyzed morphometrically in all mice sacrificed after 14 days. A full comparison between the two groups was performed for all relevant vessel wall parameters (neointima formation, vascular circumference (i.e. outward remodelling), media thickness, lumen stenosis). Accelerated atherosclerosis was analyzed by immunohistochemical staining for macrophages and foam cells in the lesion area by AIA31240 antibody.
# [3] = tested on: pGlu-Aβ(3-42) formation in HEK293 and β-TC3 cells; assay: pGlu-Aβ formation in cell culture (APP or mTRH-Aβ constructs), ELISA of medium; assay type: cell-based
# Procedure: Aβ(x-42) shall here relate to all N-terminal Aβ or truncated Aβ forms.
# In the accompanying approach, plasmids encoding variants of human APP were transfected into HEK293 cells (FIG. 24-2). The processing by β- and γ-secretase yields high amounts of Aβ(3-40/42), which can be detected in the culture medium.
# For analysis of Aβ in case of the cell culture studies, conditioned medium was diluted using EIA buffer (IBL, Hamburg) as before and diluted samples were subjected to ELISA analysis.
# THP-1 monocytes = assay: TransWell chemotaxis assay; assay type: cell-based, human
# Procedure: The chemotaxis assay was performed using 24 well TransWell plates with a pore size of 5 μm (Corning). Media, containing human MCP-1 variants expressed in HEK293, were used as chemoattractant. To this avail, 600 μl of the culture media of N-terminal human MCP-1 variants was applied directly or in dilutions 1:3, 1:10 and 1:30 in RPMI1640 to the lower chamber of the TransWell plate. Furthermore, undiluted media of HEK293 cells transfected with vector control were applied as negative control to the lower chamber. THP-1 cells were harvested and resuspended in RPMI1640 in a concentration of 1*10^6 cells/100 μl and applied in 100 μl aliquots to the upper chamber. Cells were allowed to migrate towards the chemoattractant for 2 h at 37° C. Subsequently, cells from the upper chamber were discarded and the lower chamber was mixed with 70 mM EDTA in PBS and incubated for 15 min at 37° C. to release cells attached to the membrane. Afterwards, cells migrated to the lower chamber were counted using a cell counter system (Schärfe System). The chemotactic index was calculated by dividing cells migrated to the stimulus from cells migrated to the negative control.
# [4] = tested on: pGlu-Aβ(3-40) formation in rat cortex; assay: Rat model, intracortical injection of Aβ peptides (traumatic brain injury), ELISA and immunohistochemistry; assay type: in vivo
# Procedure: Aβ(x-40), Aβ(x-42) and Aβ (N3pE-42)-specific sandwich ELISAs (all from IBL, Hamburg) were performed according to the manufacturer's manual. Briefly, samples were diluted according to the expected concentration in the brain parts and applied onto a plate precoated with an antibody specific for the respective C-terminus. The samples were incubated overnight. The next day, the plate was washed 8 times and incubated for 1 h with a horse radish peroxidase conjugated detection antibody afterwards. Following this incubation the plate was washed 10 times and then developed with chromogen (TMB) for 30 min. After applying the stop solution the absorption at 450 nm was measured using a microplate reader (TECAN Sunrise). For preparation of standard curves the respective synthetic peptides supplied with the ELISA kits were used.
# Samples for ELISA were prepared from 8 animals per group (total 32 animals). After removal of the brain, the tissue were flushed shortly with ice cold saline and placed shortly on filter paper. The cerebellum were prepared from each brain and stored separately. The brains were weighed and frozen in liquid nitrogen in 2 ml Cryo-tubes and stored at −80° C. until analysis.
# For sequential separation of Aβ the following procedures were used: […]
# Plasma half-life = assay type: in vivo; conditions: rat
# LNZ-308 cells = assay: Aβ in conditioned medium after transient APP expression, BACE I inhibition, ELISA; assay type: cell-based
# Procedure: (§1) The constructs are depicted in FIG. 33. The APP-encoding plasmids differed with respect to the sequence surrounding the β-secretase cleavage site, i.e. either carried the swedish mutation (KM595/596NL) or the wild-type sequence (K595M596) at the β-secretase-cleavage site. Furthermore, the constructs encoded either the London (V642I) or wild-type sequence (V642) near the γ-secretase cleavage site. The swedish mutation leads to an elevated generation of Aβ due to enhanced cleavage by the β-secretase BACE I. The London mutation mediates enhanced formation of Aβ42 peptides compared to the wild-type sequence without affecting the total Aβ generation.
# (§2) In order to substantiate the role of these newly discovered enzyme activity generating the molecular precursor of pGlu-Aβ peptides, inhibitors of the known β-secretase BACE I were employed in experiments based on transient expression of the plasmid constructs outlined in FIG. 33. Similar to the observations with the APP(N3Q) constructs, N-terminally truncated peptides were generated mainly after APP-WT and APP-London expression.
# (§3) Aβ(x-40), Aβ(x-42) and Aβ (N3pE-42)-specific sandwich ELISAs (all from IBL, Hamburg) were performed according to the manufacturer's manual. […] After applying the stop solution the absorption at 450 nm was measured using a microplate reader (TECAN Sunrise). […]
# HEK293 cells = assay: as above; assay type: cell-based, human
# Procedure: as §1, §2, §3
# [5] = Nonenzymatic pGlu-formation at pH 6.0 followed for 4 weeks; conditions: pH 6.0, 4 weeks
# physchem = conditions: pKa of the substrate amino group, determined by titration
# Procedure: The ionic strength was adjusted to 0.05 M by addition of NaCl. The rate profiles were evaluated by fitting to a model that is based on dissociating groups.
# For both determinations, a three-component buffer system was applied consisting of 0.05 M acetic acid, 0.05 M pyrophosphoric acid and 0.05 M Tricine. All buffers were adjusted to equal conductivity by addition of NaCl, in order to avoid differences in ionic strength. […] All determinations were carried out at 30° C.
# human QC = target: T1, human QC (Homo sapiens, UniProt Q16769); assay: Qualitative substrate conversion (MALDI-TOF / fluorometric); assay type: biochemical
# T1 construct: The cDNA of the mature QC starting with codon 38 was fused in frame with the plasmid encoded 6× histidine tag; 6xHis; made in house; host or cells: Pichia pastoris X33 (pPICZαB, secreted); also E. coli M15 (pQE-31)
# Procedure: (§4) Matrix-assisted laser desorption/ionization mass spectrometry was carried out using the Hewlett-Packard G2025 LD-TOF System with a linear time of flight analyzer. […] Samples (5 μl) were mixed with equal volumes of the matrix solution. For matrix solution we used DHAP/DAHC, prepared by solving 30 mg 2′,6′-dihydroxyacetophenone (Aldrich) and 44 mg diammonium hydrogen citrate (Fluka) in 1 ml acetonitrile/0.1% TFA in water (1/1, v/v). A small volume (≈1 μl) of the matrix-analyte-mixture was transferred to a probe tip and immediately evaporated in a vacuum chamber (Hewlett-Packard G2024A sample prep accessory) to ensure rapid and homogeneous sample crystallization.
# In order to further investigate the specificity and selectivity of the QCs, peptides were synthesized comprising either a modified N-terminal glutaminyl residue or a modified amino acid in the second position. […] Due to the cyclization of the glutaminyl residue or its analog, respectively, a mass difference of the substrate and the product of catalysis is detected. In cases of ammonia liberation of one mole per mole of substrate, the conversion was also analyzed quantitatively using the spectrophotometric assay.
# [6] = tested on: QC in porcine pituitary homogenate; assay: Formation of [pGlu3]Aβ3-11a in porcine pituitary homogenate, MALDI-TOF; assay type: biochemical; conditions: pituitary homogenate with added DPIV from porcine kidney
# Procedure: as §4
# DP IV (porcine kidney) = target: T2, DP IV (porcine kidney) (Sus scrofa, UniProt P22411); assay: DP IV cleavage of [Gln3]Aβ1-11a, MALDI-TOF; assay type: biochemical
# T2 construct: Measurements were carried out using purified DP IV (porcine kidney); from tissue; host or cells: porcine kidney
# Procedure: as §4
# [7] = Aβ aggregation assay with flow cytometry; assay type: physicochemical; conditions: 10 μM peptide, up to 24 h
# Procedure: At different times, samples were removed, diluted to 10 nM (based on the initial concentration of the monomer), and analyzed by flow cytometry.
# Seedless Aβ peptides were diluted to 10 μM (final total peptide concentration) into 50 mM sodium acetate, pH 5.5 containing 2 mM DTT and 100 mM NaCl and incubated at 37° C. without shaking. For fibril formation analysis, the peptides were either used as a mixture of unlabeled peptide (80%) and the respective fluorescence labeled peptide (20%) or as unlabeled peptides alone. […] In order to characterize the progress of the reaction, aliquots were removed at the indicated times, diluted to 10 nM into PBS-T (0.05% Tween-20) and analyzed. For reactions containing unlabeled peptides only, prior to flow cytometry aliquots were diluted to 5 nM into PBS-T and incubated with fluorescence labeled antibody 4G8 (Chemicon, Tececula, Calif.) at 1 nM for 1 h at 4° C.
# To ensure identical conditions for all measurements, all samples were measured in TruCount Tubes (BD Biosciences) and analysis was stopped after 20,000 beads were counted. Counts were transferred into ANSMS for evaluation (Alzheimer normalized specific measurement signal: event counts from flow cytometry analysis normalized to the size of the particles, i.e. to a mean size of FS Log=250).
# [8] = Thioflavin T assay of fibril formation; assay type: physicochemical
# Procedure: The observations for the Aβ42 peptides were substantiated using a common ThT fluorescence assay (FIG. 24-6D). […] The typical lag phase, i.e. the thermodynamically unfavorable period, in which the seeds are generated, is displaced by a hyperbolic initial phase. Thus, there is a much higher tendency to formation of ThT positive initial aggregates.
# Fibril formation analysis using Thioflavin T fluorescence was performed essentially as described previously (Chalifour R J, McLaughlin R W, Lavoie L, Morissette C, Tremblay N, Boule M, Sarazin P, Stea D, Lacombe D, Tremblay P, Gervais F 2003 Stereoselective interactions of peptide inhibitors with the beta-amyloid peptide. J Biol Chem 278:34874-34881). The DMSO stock solution was diluted in PBS to a final concentration of 50 μM of Aβ peptide. The peptide solution was added to an equal volume of ThT solution (20 μM ThT, 0.3 M NaCl, 0.01% NaN3) and applied to a 96-well microplate. Routinely, assays of each peptide were performed in triplicate on one plate. The plate was covered with an adhesive film (EXCEL Scientific, Wrightwood, Calif., USA) and incubated in the plate reader at 30° C. for up to 250 h. The fluorescence was measured every 4 h (excitation 440 nm, emission […]).
# T1 sequence (Q16769 29-361): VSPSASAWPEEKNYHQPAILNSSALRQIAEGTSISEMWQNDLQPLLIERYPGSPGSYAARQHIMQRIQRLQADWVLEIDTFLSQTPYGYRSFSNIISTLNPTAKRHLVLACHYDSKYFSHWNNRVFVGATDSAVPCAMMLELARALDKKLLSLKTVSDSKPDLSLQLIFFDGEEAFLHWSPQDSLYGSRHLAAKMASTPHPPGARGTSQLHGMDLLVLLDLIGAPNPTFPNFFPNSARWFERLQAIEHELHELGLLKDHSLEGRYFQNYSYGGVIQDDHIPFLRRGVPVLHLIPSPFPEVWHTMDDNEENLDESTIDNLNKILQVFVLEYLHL
# T2 sequence (P22411 whole entry): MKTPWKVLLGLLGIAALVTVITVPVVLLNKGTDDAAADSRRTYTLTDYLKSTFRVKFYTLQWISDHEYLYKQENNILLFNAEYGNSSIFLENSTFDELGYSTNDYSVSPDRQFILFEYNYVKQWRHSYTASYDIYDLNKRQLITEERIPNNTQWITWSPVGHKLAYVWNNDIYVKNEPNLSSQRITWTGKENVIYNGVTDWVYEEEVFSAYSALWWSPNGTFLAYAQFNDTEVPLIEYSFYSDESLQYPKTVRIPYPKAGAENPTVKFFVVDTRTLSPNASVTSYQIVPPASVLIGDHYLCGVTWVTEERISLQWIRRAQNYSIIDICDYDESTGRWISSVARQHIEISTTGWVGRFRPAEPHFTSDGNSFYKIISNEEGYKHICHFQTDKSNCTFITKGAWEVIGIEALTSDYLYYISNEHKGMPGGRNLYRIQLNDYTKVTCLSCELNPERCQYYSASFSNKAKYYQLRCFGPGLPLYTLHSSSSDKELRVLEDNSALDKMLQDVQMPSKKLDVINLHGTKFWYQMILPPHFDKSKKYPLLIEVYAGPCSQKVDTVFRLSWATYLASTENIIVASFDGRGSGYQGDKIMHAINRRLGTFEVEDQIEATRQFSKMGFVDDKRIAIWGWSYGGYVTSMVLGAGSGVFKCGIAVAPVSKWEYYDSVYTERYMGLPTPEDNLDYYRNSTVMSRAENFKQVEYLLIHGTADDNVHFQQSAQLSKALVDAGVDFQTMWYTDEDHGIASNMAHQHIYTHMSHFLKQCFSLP
compound,measurement,setting,value
Fc1ccc(NC(=S)NCCCn2ccnc2)cc1,melting point,,147 to 148 °C
"COc1ccc(NC(=S)NCCCn2ccnc2)cc1OC.Cl [1-(3-(1H-imidazol-1-yl)propyl)-3-(3,4-dimethoxyphenyl)thiourea hydrochloride]",level of MCP-1 (WT) in supernatant,[1],not significantly changed
same,"reduction of MCP-1 expression, absolute area, intima",[2]; 2 days,40%
same,"reduction of MCP-1 expression, absolute area, media",[2]; 2 days,41%
same,reduction of adhering monocytes,[2]; 2 days,67%
same,reduction of total adhering cells,[2]; 2 days,45%
same,MCP-1 expression in media or neointima,[2]; 14 days,no reduction of MCP-1 expression
same,area of the media,[2]; 14 days,reduced
same,reduction of percentage of lumen stenosis,[2]; 14 days,40%
same,reduction of the area of neointima formation,[2]; 14 days,45%
same,remaining lumen,[2]; 14 days,no statistically significant effect
same,pGlu-Aβ concentration in medium,[3]; HEK293 and β-TC3 settings,significantly reduced
same,total Aβ concentration in medium,[3]; indicator of cell viability,not reduced
same,chemotaxis of THP-1 cells towards MCP-1 (WT) supernatant,"THP-1 monocytes; 10 μM inhibitor, dilutions 1:3 and 1:10",significantly lower chemotaxis
same,pGlu-Aβ immunostaining,[4]; injected prior to Aβ(3-40),significant reduction in pGlu-Aβ immunostaining
same,pGlu-Aβ after injection of Aβ(1-40),"[4]; rat, in vivo",did not result in a clear reduction of pGlu-Aβ
same,half-life,Plasma half-life,< 1 h
C[C@@H](NC(=O)c1cc(C(=O)N[C@@H](Cc2ccccc2)[C@H](O)CNC2CC2)cc(N(C)S(C)(=O)=O)c1)c1ccccc1 [BACE IV],total Aβ lowering,LNZ-308 cells,only marginal efficacy
same,Aβ(1-40) and Aβ(1-42),HEK293 cells,reduced the N-terminally intact Aβ-peptides
same,total Aβ40-concentration,HEK293 cells; HEK293 cells,did not influence the total Aβ40-concentration significantly
NC(=O)CC[C@H](N)C(=O)Nc1ccc2ccccc2c1 [H-Gln-βNA],first-order rate constant of nonenzymatic pGlu-formation,[5],1.2*10^−7 s^−1
same,pKa,physchem,7.16 ± 0.01
N[C@@H](CCC(=O)O)C(=O)Nc1ccc2ccccc2c1 [H-Glu-βNA],conversion by human QC,human QC,None of these compounds were converted
same,first-order rate constant of nonenzymatic pGlu-formation,[5],≤ 1.0*10^−9 s^−1
"CC(C)[C@H](N)C(=O)N1CCCC1 [Val-Pyrr, Val-Pyrrolidide]","formation of [pGlu^3]Aβ3-11a from [Gln^3]Aβ1-11a, consecutive catalysis by DP IV and QC",[6],not formed
same,DPIV-catalysed formation of [Gln^3]Aβ3-11a from [Gln^3]Aβ1-11a,DP IV (porcine kidney),completely prevented
Aβ(1-42): SEQ ID NO: 20,fibril formation,[7],Only very little fibril formation
MCP-1 (WT): human MCP-1(1-76) expressed in HEK293 cells,chemotaxis of THP-1 cells,THP-1 monocytes; supernatant of transfected HEK293 cells,chemotactic response
pGlu-Aβ(3-40): N-terminally pyroglutamate-modified Aβ(3-40),"aggregation, ThT fluorescence",[8],much faster aggregation compared to the non-cyclized counterpart
